According to US7741341B2, “Benzimidazole-derivatives as factor Xa inhibitors” (sanofi-aventis Deutschland GmbH, priority 2003, dated 2010):

Molecular target: T1, human factor Xa (Homo sapiens, UniProt P00742)
T1 construct: human factor Xa (Enzyme Research Laboratories, Inc; South Bend, Ind.); purchased Enzyme Research Laboratories, Inc; South Bend, Ind
Experiment: Factor Xa assay (chromogenic, substrate S-2765)
Format: biochemical
Settings: read-out: Ki(FXa)
Summary of the method: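 Purified human factor Xa (0.5 nM final) in TBS-PEG was preincubated 10 min with compound in DMSO-containing buffer. The reaction was started with chromogenic substrate S-2765 at 140 μM. IC50 was taken from the concentration series.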

T1 sequence (P00742 235-488 limits assumed): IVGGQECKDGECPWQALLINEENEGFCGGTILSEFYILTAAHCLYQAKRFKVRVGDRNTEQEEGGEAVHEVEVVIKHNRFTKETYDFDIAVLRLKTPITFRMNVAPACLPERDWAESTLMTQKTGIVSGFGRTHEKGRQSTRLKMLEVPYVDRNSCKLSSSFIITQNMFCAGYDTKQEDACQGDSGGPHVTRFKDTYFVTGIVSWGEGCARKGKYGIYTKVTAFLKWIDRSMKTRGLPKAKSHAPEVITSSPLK
T1 sequence (P00742 41-179 partner limits assumed): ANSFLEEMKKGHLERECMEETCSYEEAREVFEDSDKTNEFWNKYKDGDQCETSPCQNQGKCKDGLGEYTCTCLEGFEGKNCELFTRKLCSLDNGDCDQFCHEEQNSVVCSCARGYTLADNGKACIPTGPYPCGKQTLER

Row | Ki | Structure (SMILES)
1 | 3 nM | CC(C)N1CCC(NC(=O)c2nc3c(C(=O)O)cccc3n2Cc2cc(-c3ccc(Cl)s3)on2)CC1 [Example 12, 1-[5-(5-Chloro-thiophen-2-yl)-isoxazol-3-ylmethyl]-2-(1-isopropyl-piperidin-4-ylcarbamoyl)-1H-benzoimidazole-4-carboxylic acid]
2 | 22.5 nM | CC(C)N1CCC(NC(=O)c2nc3c(c(=O)n(C)c(=O)n3C)n2Cc2cc(-c3ccc(Cl)s3)on2)CC1 [Example 92, 7-[5-(5-Chloro-thiophen-2-yl)-isoxazol-3-ylmethyl]-1,3-dimethyl-2,6-dioxo-2,3,6,7-tetrahydro-1H-purine-8-carboxylic acid (1-isopropyl-piperidin-4-yl)-amide]
3 | 47 nM | O=C(Cn1c(C(=O)Nc2ccc(-n3ccc(=O)cc3)cc2)nc2ccccc21)Nc1ccc(Cl)cn1 [Example 39, 1-[(5-Chloro-pyridin-2-ylcarbamoyl)-methyl]-1H-benzoimidazole-2-carboxylic acid [4-(4-oxo-4H-pyridin-1-yl)-phenyl]-amide]
4 | 4 nM | COC(=O)c1cccc2c1nc(C(=O)NC1CCN(C(C)C)CC1)n2Cc1cc(-c2ccc(Cl)s2)on1 [Example 11a, 1-[5-(5-Chloro-thiophen-2-yl)-isoxazol-3-ylmethyl]-2-(1-isopropyl-piperidin-4-ylcarbamoyl)-1H-benzoimidazole-4-carboxylic acid methyl ester]
5 | 867 nM | CC(OC(=O)OC1CCCCC1)OC(=O)c1ccc2nc(C(=O)NC3CCN(C(C)C)CC3)n(CC(=O)Nc3ccc(Cl)cn3)c2c1 (stereo not shown) [Example 61, 3-[(5-Chloro-pyridin-2-ylcarbamoyl)-methyl]-2-(1-isopropyl-piperidin-4-ylcarbamoyl)-3H-benzoimidazole-5-carboxylic acid 1-cyclohexyloxycarbonyloxy-ethyl ester]
6 | 65 nM | CC(C)N1CCC(NC(=O)c2nc3cc(C(=O)N(C)CCO)ccc3n2Cc2cc(-c3ccc(Cl)s3)on2)CC1 [Example 25, 1-[5-(5-Chloro-thiophen-2-yl)-isoxazol-3-ylmethyl]-1H-benzoimidazole-2,5-dicarboxylic acid 5-[(2-hydroxy-ethyl)-methyl-amide] 2-[(1-isopropyl-piperidin-4-yl)-amide]]
7 | 7 nM | COC1CN(C(=O)c2cccc3c2nc(C(=O)NC2CCN(C(C)C)CC2)n3Cc2cc(-c3ccc(Cl)s3)on2)C1 [Example 80, 1-[5-(5-Chloro-thiophen-2-yl)-isoxazol-3-ylmethyl]-4-(3-methoxy-azetidine-1-carbonyl)-1H-benzoimidazole-2-carboxylic acid (1-isopropyl-piperidin-4-yl)-amide]
8 | 0.7 nM | CC(C)N1CCC(NC(=O)c2nc3c(C(=O)NCCO)cccc3n2Cc2cc(-c3ccc(Cl)s3)on2)CC1 [Example 22, 1-[5-(5-Chloro-thiophen-2-yl)-isoxazol-3-ylmethyl]-1H-benzoimidazole-2,4-dicarboxylic acid 4-[(2-hydroxy-ethyl)-amide] 2-[(1-isopropyl-piperidin-4-yl)-amide]]
9 | 585 nM | CC(C)N1CCC(NC(=O)c2nc3ccc(C(=O)NCCO)cc3n2CC(=O)Nc2ccc(Cl)cn2)CC1 [Example 57, 3-[(5-Chloro-pyridin-2-ylcarbamoyl)-methyl]-3H-benzoimidazole-2,5-dicarboxylic acid 5-[(2-hydroxy-ethyl)-amide]2-[(1-isopropyl-piperidin-4-yl)-amide]]
10 | 8.5 nM | CC(C)N1CCC(NC(=O)c2nc3c(C(=O)N4CCC(F)(F)CC4)cccc3n2CC(=O)Nc2ccc(Cl)cn2)CC1 [Example 76, 1-[(5-Chloro-pyridin-2-ylcarbamoyl)-methyl]-4-(4,4-difluoro-piperidine-1-carbonyl)-1H-benzoimidazole-2-carboxylic acid (1-isopropyl-piperidin-4-yl)-amide]
11 | 12.5 nM | CCOC(=O)OC(C)OC(=O)c1ccc2c(c1)nc(C(=O)NC1CCN(C(C)C)CC1)n2Cc1cc(-c2ccc(Cl)s2)on1 (stereo not shown) [Example 27, 1-[5-(5-Chloro-thiophen-2-yl)-isoxazol-3-ylmethyl]-2-(1-isopropyl-piperidin-4-ylcarbamoyl)-1H-benzoimidazole-5-carboxylic acid 1-ethoxycarbonyloxy-ethyl ester]
12 | 687 nM | CCOC(=O)OC(C)OC(=O)c1ccc2nc(C(=O)NC3CCN(C(C)C)CC3)n(CC(=O)Nc3ccc(Cl)cn3)c2c1 (stereo not shown) [Example 63, 3-[(5-Chloro-pyridin-2-ylcarbamoyl)-methyl]-2-(1-isopropyl-piperidin-4-ylcarbamoyl)-3H-benzoimidazole-5-carboxylic acid 1-ethoxycarbonyloxy-ethyl ester]
13 | 11.5 nM | CC(C)N1CCC(NC(=O)c2nc3ccc(S(=O)(=O)CCO)cc3n2Cc2cc(-c3ccc(Cl)s3)on2)CC1 [Example 29b, 1-[5-(5-Chloro-thiophen-2-yl)-isoxazol-3-ylmethyl]-6-(2-hydroxy-ethanesulfonyl)-1H-benzoimidazole-2-carboxylic acid (1-isopropyl-piperidin-4-yl)-amide]
